What was measured:
Assay in all cases: relative viability (nuclei count vs DMSO), 5 days (fraction); higher = more cells survive
[1] = test system: SW 1573
Outline: (§1)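 Each reported value is a median over duplicate plates. It expresses relative viability: treated-well nuclei count divided by vehicle-well nuclei count. Lung cancer cell lines in 1536-well plates were dosed by pin tool a day after seeding, alone with one drug or with a fixed anchor-drug dose plus five library-drug doses (not always all listed) in √10 steps, and nuclei were counted after 5 days.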

[2] = test system: EMC-BAC-2
Outline: as §1

[3] = test system: NCI-H358
Outline: as §1

[4] = test system: LU99A
Outline: as §1

[5] = test system: NCI-H1395
Outline: as §1

[6] = test system: LC-2-ad
Outline: as §1

[7] = test system: NCI-H2023
Outline: as §1

[8] = test system: NCI-H1734
Outline: as §1

[9] = test system: NCI-H2126
Outline: as §1

[10] = test system: SW 900
Outline: as §1

[11] = test system: NCI-H1915
Outline: as §1

Compound: Cc1csc(=NC2CCCCC2)n1/N=C/c1ccc(O)c(O)c1O [MIM1] + CC(=O)c1c(C)c2cnc(Nc3ccc(N4CCNCC4)cn3)nc2n(C2CCCC2)c1=O [Palbociclib] (partner 0.5 µM)
- relative viability ([1]; first compound 0.2 µM): 0.412
- relative viability ([1]; first compound 0.6325 µM): 0.501
- relative viability ([1]; first compound 2 µM): 0.365
- relative viability ([1]; first compound 6.325 µM): 0.325
- relative viability ([1]; first compound 20 µM): 0.148
- relative viability ([2]; first compound 0.2 µM): 0.543
- relative viability ([2]; first compound 0.6325 µM): 0.542
- relative viability ([2]; first compound 2 µM): 0.476
- relative viability ([2]; first compound 6.325 µM): 0.492
- relative viability ([2]; first compound 20 µM): 0.244
- relative viability ([3]; first compound 0.2 µM): 0.145
- relative viability ([3]; first compound 0.6325 µM): 0.153
- relative viability ([3]; first compound 2 µM): 0.122
- relative viability ([3]; first compound 6.325 µM): 0.118
- relative viability ([3]; first compound 20 µM): 0.128
- relative viability ([4]; first compound 0.2 µM): 0.404
- relative viability ([4]; first compound 0.6325 µM): 0.405
- relative viability ([4]; first compound 2 µM): 0.38
- relative viability ([4]; first compound 6.325 µM): 0.355
- relative viability ([4]; first compound 20 µM): 0.159
- relative viability ([5]; first compound 0.2 µM): 0.583
- relative viability ([5]; first compound 0.6325 µM): 0.6
- relative viability ([5]; first compound 2 µM): 0.596
- relative viability ([5]; first compound 6.325 µM): 0.579
- relative viability ([5]; first compound 20 µM): 0.406
- relative viability ([6]; first compound 0.2 µM): 0.463
- relative viability ([6]; first compound 0.6325 µM): 0.471
- relative viability ([6]; first compound 2 µM): 0.502
- relative viability ([6]; first compound 6.325 µM): 0.289
- relative viability ([6]; first compound 20 µM): 0.182
- relative viability ([7]; first compound 0.2 µM): 0.393
- relative viability ([7]; first compound 0.6325 µM): 0.387
- relative viability ([7]; first compound 2 µM): 0.391
- relative viability ([7]; first compound 6.325 µM): 0.194
- relative viability ([7]; first compound 20 µM): 0.0614
- relative viability ([8]; first compound 0.2 µM): 0.32
- relative viability ([8]; first compound 0.6325 µM): 0.361
- relative viability ([8]; first compound 2 µM): 0.34
- relative viability ([8]; first compound 6.325 µM): 0.322
- relative viability ([8]; first compound 20 µM): 0.193
- relative viability ([9]; first compound 0.2 µM): 0.336
- relative viability ([9]; first compound 0.6325 µM): 0.388
- relative viability ([9]; first compound 2 µM): 0.348
- relative viability ([9]; first compound 6.325 µM): 0.34
- relative viability ([9]; first compound 20 µM): 0.329
- relative viability ([10]; first compound 0.2 µM): 0.632
- relative viability ([10]; first compound 0.6325 µM): 0.581
- relative viability ([10]; first compound 2 µM): 0.507
- relative viability ([10]; first compound 6.325 µM): 0.211
- relative viability ([10]; first compound 20 µM): 0.171
- relative viability ([11]; first compound 0.2 µM): 0.527
- relative viability ([11]; first compound 0.6325 µM): 0.529

From the supplement of paper PMC10307832
